Experimental findings from patent publication US7214386B2, “Method for the treatment and prevention of overweight in mammals” (priority 2002, dated 2007) are described below.

Experiment [1] can be described thus: Plasma glucose in rats (oxidase-peroxidase method). The following applies: rats on high fat diet, after 2½ weeks of treatment versus after 1 week on the high fat diet.
A short description of experiment [2]: Plasma insulin in rats (radioimmunoassay). The following applies: rats on high fat diet, after 2½ weeks of treatment versus after 1 week on the high fat diet.
The next experiment deals with 3T3-L1 cells. In words: Effect of dill extract on isoprenaline-stimulated lipolysis (glycerol formation) in differentiated 3T3-L1 cells. The following applies: 24 hours incubation, glycerol formation of sample A divided by that of sample B (isoprenaline alone). It counts as cell-based. How it is done:
3T3-L1 cells were grown in T75 flasks. The cells were detached by trypsin incubation (±5 min at 37° C.). After detachment, 4 ml lipolysis standard medium was added to the flask (DMEM; 10% fetal calf serum; 4.5 g/l D-glucose; 100 U/ml penicillin; 100 μg/ml streptomycin) and the cells were suspended therein. The cell suspension was then diluted in lipolysis standard medium to 50000 cells/ml (5000 cells/100 μl), and 100 μl of this diluted cell mix was transferred to a precoated well in a 96 wells plate. […] Thereafter the solution was removed). After incubation for 48 hours at 37° C., the medium was refreshed (removal of old medium and addition of 100 μl lipolysis standard medium) and the cells incubated at 37° C. After 72 hours, the supernatant was removed and 100 μl differentiation medium (5 μg/ml bovine insuline; 0.25 μM dexamethasone; 0.5 mM IBMX; in standard medium) was added. […] After 24 hours incubation at 37° C., the glycerol concentration in the supernatant was determined using a glycerol assay (Sigma Cat.no. 337) against a standard curve of glycerol in lipolysis standard medium. The relative lipolysis inhibiting activity of the dill extract was calculated by dividing the glycerol formation of sample A of interest by the glycerol formation of sample B.

For `Cn1c(=O)c2c(ncn2C)n(C)c1=O` [caffeine], the “plasma glucose levels (FIG. 3)” value in experiment [1] is listed as “significant reduction”. In addition, the “plasma insulin levels (FIG. 3)” value in experiment [2] is reported as “no reduction”. `CC(C)NCC(O)c1ccc(O)c(O)c1` (stereo not drawn) [isoprenaline]: in the experiment on 3T3-L1 cells, the “Relative lipolysis inhibiting effect” value is listed as 1.
